Measurements published in article PMC9980655 (Journal of medicinal chemistry, 2022).

How the values were obtained:
[1] = In vitro metabolic stability in CES1−/− mouse liver homogenate; type: in vitro ADME; conditions: C57BL/6, mouse
[2] = In vitro metabolic stability in CES1−/− mouse plasma; type: in vitro ADME; conditions: C57BL/6, mouse
[3] = In vitro metabolic stability in CES1−/− mouse brain homogenate; type: in vitro ADME; conditions: for remaining at 1 h, 10 μM: C57BL/6, mouse; for Stability in mouse (% remaining at 1 h) Brain: 10 μM, 37 °C, mean ± std error, n = 3
[4] = rats, dose dependent; cited from earlier work
[5] = Time-dependent oral PK in CES1−/− mice; type: in vivo, mouse; conditions: PO 10 mg/kg DPTIP equivalent
[6] = type: in vivo, mouse; conditions: high resolution mass spectrometry, after oral dosing
Single time-point = type: in vivo, mouse; conditions: CES1−/− mice, PO 10 mg/kg DPTIP equivalent, 2 h post dose
nSMase2 = target: T1, nSMase2 (Mus musculus, UniProt Q9JJY3); assay: nSMase2 activity in striata of IL-1β-injected mice; type: in vivo; conditions: PO 3 and 10 mg/kg DPTIP equivalent, dose dependent, 4 h post IL-1β
T1 sequence (Q9JJY3 1-655): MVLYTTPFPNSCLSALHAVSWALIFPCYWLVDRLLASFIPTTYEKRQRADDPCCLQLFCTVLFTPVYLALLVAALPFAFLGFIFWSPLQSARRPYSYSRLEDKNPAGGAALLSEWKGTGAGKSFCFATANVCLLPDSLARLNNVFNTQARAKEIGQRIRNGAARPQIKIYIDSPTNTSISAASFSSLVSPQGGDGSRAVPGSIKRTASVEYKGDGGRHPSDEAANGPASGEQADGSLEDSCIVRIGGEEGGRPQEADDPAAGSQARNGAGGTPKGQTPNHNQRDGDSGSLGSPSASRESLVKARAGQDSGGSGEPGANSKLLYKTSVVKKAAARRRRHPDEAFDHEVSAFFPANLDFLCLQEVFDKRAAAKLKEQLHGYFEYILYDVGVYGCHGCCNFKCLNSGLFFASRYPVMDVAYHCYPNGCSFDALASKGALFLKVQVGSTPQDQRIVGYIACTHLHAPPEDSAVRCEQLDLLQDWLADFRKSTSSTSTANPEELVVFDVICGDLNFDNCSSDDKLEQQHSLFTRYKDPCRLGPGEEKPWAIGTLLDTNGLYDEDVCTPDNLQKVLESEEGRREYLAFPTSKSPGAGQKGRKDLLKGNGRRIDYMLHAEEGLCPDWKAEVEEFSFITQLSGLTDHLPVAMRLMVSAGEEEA

Which remaining at 1 h, 10 μM ([1]; tissue homogenate) does the source give for `COc1cc(-c2nc(-c3ccccc3)c(-c3cccs3)[nH]2)cc(OC)c1OC(=O)N1C2CCCC1CC2` [Compound P12, 2,6-Dimethoxy-4-(5-phenyl-4-(thiophen-2-yl)-1H-imidazol-2-yl)phenyl 8-azabicyclo[3.2.1]octane-8-carboxylate] here?
The remaining at 1 h, 10 μM was > 75%.

What does the source list for `COc1cc(-c2nc(-c3ccccc3)c(-c3cccs3)[nH]2)cc(OC)c1OC(=O)C(C)(C)C` [Compound P4, 2,6-Dimethoxy-4-(4-phenyl-5-(thiophen-2-yl)-1H-imidazol-2-yl)phenyl pivalate]?
remaining at 1 h, 10 μM ([1]; CES1−/− mouse liver homogenate): < 25%; remaining at 1 h, 10 μM ([2]; CES1−/− mouse plasma): < 30%; remaining at 1 h, 10 μM ([3]; CES1−/− mouse brain homogenate): > 75%

Which remaining at 1 h, 10 μM ([1]; tissue homogenate) does the source give for `COc1cc(-c2nc(-c3ccccc3)c(-c3cccs3)[nH]2)cc(OC)c1OC(=O)N1C2CCC1CC(N1CCCCC1)C2` (centres unmarked) [Compound P13, 2,6-Dimethoxy-4-(5-phenyl-4-(thiophen-2-yl)-1H-imidazol-2-yl)phenyl 3-(piperidin-1-yl)-8-azabicyclo[3.2.1]octane-8-carboxylate] here?
The remaining at 1 h, 10 μM was > 75%.

With `CC(C)c1cccc(C(C)C)c1OCOP(=O)(O)O` [fospropofol] as the compound, how does the “Improvement of oral bioavailability” value [4] read?
Its value is 20–70%.

With `CCC1CCCC(CC)N1C(=O)Oc1c(OC)cc(-c2nc(-c3ccccc3)c(-c3cccs3)[nH]2)cc1OC` (centres unmarked) [Compound P10, 2,6-Dimethoxy-4-(5-phenyl-4-(thiophen-2-yl)-1H-imidazol-2-yl)phenyl 2,6-diethylpiperidine-1-carboxylate] as the compound, how does the remaining at 1 h, 10 μM ([1]; CES1−/− mouse liver homogenate) read?
The remaining at 1 h, 10 μM was > 50%.

For `COc1cc(-c2nc(-c3ccccc3)c(-c3cccs3)[nH]2)cc(OC)c1OC(=O)N1CCC(N2CCCCC2)CC1` [Compound P1, 2,6-Dimethoxy-4-(4-phenyl-5-(thiophen-2-yl)-1H-imidazol-2-yl)phenyl [1,4’-bipiperidine]-1’-carboxylate], which remaining at 1 h, 10 μM ([1]; tissue homogenate) is on record?
Its remaining at 1 h, 10 μM is > 75%.

What about the remaining at 1 h, 10 μM ([2]; plasma) of the same compound?
Its remaining at 1 h, 10 μM is > 75%.

What about the “AUC0-t of intact prodrug in brain” value [5] of the same compound?
Its value is 494.6 pmol·h/g.

And the remaining at 1 h, 10 μM ([3]; brain homogenate)?
The remaining at 1 h, 10 μM was ≥ 50%.

Which results are given for `COc1cc(-c2nc(-c3ccccc3)c(-c3cccs3)[nH]2)cc(OC)c1OCOP(=O)(O)O` [Compound P15, (2,6-Dimethoxy-4-(4-phenyl-5-(thiophen-2-yl)-1H-imidazol-2-yl)phenoxy) methyl dihydrogen phosphate]?
remaining at 1 h, 10 μM ([1]; CES1−/− mouse liver homogenate): < 25%; Stability in mouse (% remaining at 1 h) Brain ([3]; CES1−/− mouse brain homogenate): completely metabolized

With `COc1cc(-c2nc(-c3ccccc3)c(-c3cccs3)[nH]2)cc(OC)c1OC(=O)OC(OC(=O)C(C)(C)C)c1ccccc1` (centres unmarked) [Compound P6, (((2,6-Dimethoxy-4-(4-phenyl-5-(thiophen-2-yl)-1H-imidazol-2-yl)phenoxy)carbonyl)oxy)(phenyl)methyl pivalate] as the compound, how does the remaining at 1 h, 10 μM ([1]; CES1−/− mouse liver homogenate) read?
The remaining at 1 h, 10 μM was > 75%.

What about the remaining at 1 h, 10 μM ([2]; CES1−/− mouse plasma) of the same compound?
Its remaining at 1 h, 10 μM is > 75%.

And the remaining at 1 h, 10 μM ([3]; CES1−/− mouse brain homogenate)?
The remaining at 1 h, 10 μM was ≥ 50%.

Which “Putative oxidized pyridinium metabolite in brain and plasma” value [6] does the source give for `COc1cc(-c2nc(-c3ccccc3)c(-c3cccs3)[nH]2)cc(OC)c1OC(=O)C1=CN(C)C=CC1` [Compound P17, 2,6-Dimethoxy-4-(4-phenyl-5-(thiophen-2-yl)-1H-imidazol-2-yl)phenyl 1-methyl-1,4-dihydropyridine-3-carboxylate] here?
The value was “negligible quantities”.

What about the “Brain level of intact prodrug” value (Single time-point) of the same compound?
Its value is 3.0 nM.

And the “Plasma level of intact prodrug” value (Single time-point)?
Its value is 3.9 nM.

Which results are given for `COc1cc(-c2nc(-c3ccccc3)c(-c3cccs3)[nH]2)cc(OC)c1OC(=O)N(C)C` [Compound P5, 2,6-Dimethoxy-4-(4-phenyl-5-(thiophen-2-yl)-1H-imidazol-2-yl)phenyl dimethylcarbamate]?
remaining at 1 h, 10 μM ([1]; tissue homogenate): > 75%; remaining at 1 h, 10 μM ([2]; plasma): > 75%; remaining at 1 h, 10 μM ([3]; brain homogenate): > 75%

Which results are given for `COc1cc(-c2nc(-c3ccccc3)c(-c3cccs3)[nH]2)cc(OC)c1OCOP(=O)(O)OCOC(=O)OC(C)C` [Compound P16, ((((2,6-Dimethoxy-4-(4-phenyl-5-(thiophen-2-yl)-1H-imidazol-2-yl)phenoxy)methoxy)(hydroxy)phosphoryl)oxy)methyl isopropyl carbonate]?
remaining at 1 h, 10 μM ([1]; CES1−/− mouse liver homogenate): < 25%; remaining at 1 h, 10 μM ([3]; CES1−/− mouse brain homogenate): > 75%

Which “Effect on heightened nSMase2 activity in striata caused by IL-1β” value (nSMase2) does the source give for `CCC1CC(N2CCCCC2)CC(CC)N1C(=O)Oc1c(OC)cc(-c2nc(-c3ccccc3)c(-c3cccs3)[nH]2)cc1OC` (centres unmarked) [Compound P18, 2,6-Dimethoxy-4-(5-phenyl-4-(thiophen-2-yl)-1H-imidazol-2-yl)phenyl 2’,6’-diethyl-[1,4’-bipiperidine]-1’-carboxylate] here?
Its value is “normalized”.

And the remaining at 1 h, 10 μM ([1]; tissue homogenate)?
Its remaining at 1 h, 10 μM is > 75%.

And the remaining at 1 h, 10 μM ([2]; plasma)?
Its remaining at 1 h, 10 μM is > 75%.

What about the “AUC0-t of intact prodrug in brain” value [5] of the same compound?
The value was 179 pmol·h/g.

What about the remaining at 1 h, 10 μM ([3]; brain homogenate) of the same compound?
The remaining at 1 h, 10 μM was > 75%.

For `COc1cc(-c2nc(-c3ccccc3)c(-c3cccs3)[nH]2)cc(OC)c1OC(C)=O` [Compound P3, 2,6-Dimethoxy-4-(4-phenyl-5-(thiophen-2-yl)-1H-imidazol-2-yl)phenyl acetate], which remaining at 1 h, 10 μM ([1]; CES1−/− mouse liver homogenate) is on record?
Its remaining at 1 h, 10 μM is < 25%.

What about the remaining at 1 h, 10 μM ([2]; CES1−/− mouse plasma) of the same compound?
Its remaining at 1 h, 10 μM is < 30%.

What about the “Stability in mouse (% remaining at 1 h) Brain” value ([3]; CES1−/− mouse brain homogenate) of the same compound?
Its value is “completely metabolized”.

Which results are given for `CCCCCC(=O)Oc1c(OC)cc(-c2nc(-c3ccccc3)c(-c3cccs3)[nH]2)cc1OC` [Compound P2, 2,6-Dimethoxy-4-(4-phenyl-5-(thiophen-2-yl)-1H-imidazol-2-yl)phenyl hexanoate]?
remaining at 1 h, 10 μM ([1]; CES1−/− mouse liver homogenate): < 25%; remaining at 1 h, 10 μM ([2]; CES1−/− mouse plasma): < 30%; remaining at 1 h, 10 μM ([3]; CES1−/− mouse brain homogenate): ≥ 50%
